Experimental data published in ChEMBL document CHEMBL1141041, “Discovery of halogenated eurypamide B analogues as inhibitors of lipid droplet accumulation in macrophages” (Bioorg Med Chem Lett, 2005).

assay: Inhibition of lipid droplets accumulation in mouse peritoneal macrophages as a model of macrophage-derived foam-cell formation; type: functional

| Structure (SMILES) | IC50 [µM] |
| --- | --- |
| C[C@@H](O)[C@@H]1NC(=O)[C@@H](N)Cc2ccc(O)c(c2)Oc2ccc(cc2)C[C@@H](C(=O)O)NC1=O | > 22.6 |
| COC(=O)[C@@H]1Cc2ccc(cc2)Oc2cc(ccc2O)C[C@H](N)C(=O)N[C@@H]([C@@H](C)O)C(=O)N1 | > 13.5 |
| C[C@@H](OCc1ccccc1)C1NC(=O)[C@@H](NC(=O)OC(C)(C)C)Cc2ccc(O)c(c2)Oc2ccc(cc2)C[C@@H](C(=O)O)NC1=O (stereo partly specified) | 3.2 |
| COC(=O)[C@@H]1Cc2ccc(cc2)Oc2cc(ccc2O)C[C@H](N)C(=O)NC([C@@H](C)OCc2ccccc2)C(=O)N1 (stereo partly specified) | > 12.1 |
| C[C@@H](O)C1NC(=O)[C@@H](NC(=O)OC(C)(C)C)Cc2ccc(O)c(c2)Oc2ccc(cc2)C[C@@H](C(=O)O)NC1=O (stereo partly specified) | > 12.1 |
| C[C@@H](OCc1ccccc1)C1NC(=O)[C@@H](NC(=O)Oc2ccccc2)Cc2ccc(O)c(c2)Oc2ccc(cc2)C[C@@H](C(=O)O)NC1=O (stereo partly specified) | 3.1 |
